Data taken from patent US6822100B2 (Bristol-Myers Squibb Company, priority 2001, dated 2004).
Where a name gives a salt, the structure may show the parent alone. Read-outs that look alike come from different tables or passages of the source.

Key:
[1] = biological target: T1, recombinant human dopamine D2L receptors (Homo sapiens, UniProt P14416); experiment: Dopamine Binding Assay; conditions: HEK-D2L cell membranes, 150 pM [3H]-spiperone, Cheng and Prusoff
T1 construct: expressed in transfected cells; host or cells: HEK-293 (HEK-D2L), membrane homogenates
How it was run: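 Competition binding on HEK-293 membranes stably expressing human D2L (~5 μg protein) with 150 pM [3H]-spiperone, 1.5 h at 22 °C in 50 mM Tris pH 7.4, 1 mM EDTA, 6 mM MgCl2. Filtration read-out; non-specific binding defined with 2 μM (+)butaclamol, Ki by Cheng-Prusoff.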

[2] = biological target: T2, human serotonin transporters (Homo sapiens, UniProt P31645); experiment: Serotonin Transporter Binding Assay; conditions: HEK-hSERT cell membranes, 1 nM [3H]-citalopram, Cheng and Prusoff
T2 construct: expressed in transfected cells; host or cells: HEK-293 (HEK-hSERT), membrane homogenates
How it was run: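 Membranes from HEK-293 cells stably expressing hSERT were incubated 1 hr at 25° C with 1 nM [^3H]-citalopram and test compound in 50 mM Tris pH 7.4, 120 mM NaCl, 5 mM KCl, then filtered. Non-specific binding was defined by 10 μM fluoxetine. IC50 came from displacement curves, and Ki by Cheng–Prusoff.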

T2 sequence (P31645 whole entry): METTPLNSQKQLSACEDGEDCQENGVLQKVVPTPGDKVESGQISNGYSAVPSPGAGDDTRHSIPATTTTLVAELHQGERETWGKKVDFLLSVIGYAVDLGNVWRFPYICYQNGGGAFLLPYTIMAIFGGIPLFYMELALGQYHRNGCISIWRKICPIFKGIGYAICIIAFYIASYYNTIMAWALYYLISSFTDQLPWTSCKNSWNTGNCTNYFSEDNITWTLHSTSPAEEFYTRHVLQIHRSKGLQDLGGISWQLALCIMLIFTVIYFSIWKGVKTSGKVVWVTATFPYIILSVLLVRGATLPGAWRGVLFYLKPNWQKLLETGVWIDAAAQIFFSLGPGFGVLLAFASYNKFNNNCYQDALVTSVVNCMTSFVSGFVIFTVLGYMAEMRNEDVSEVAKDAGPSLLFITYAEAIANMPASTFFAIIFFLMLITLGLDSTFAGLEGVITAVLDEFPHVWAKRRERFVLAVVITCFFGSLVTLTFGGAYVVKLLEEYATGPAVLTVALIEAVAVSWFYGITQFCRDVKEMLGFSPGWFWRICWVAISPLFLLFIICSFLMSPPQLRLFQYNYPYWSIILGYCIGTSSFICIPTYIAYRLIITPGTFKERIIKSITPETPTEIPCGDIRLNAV
T1 sequence (P14416 whole entry): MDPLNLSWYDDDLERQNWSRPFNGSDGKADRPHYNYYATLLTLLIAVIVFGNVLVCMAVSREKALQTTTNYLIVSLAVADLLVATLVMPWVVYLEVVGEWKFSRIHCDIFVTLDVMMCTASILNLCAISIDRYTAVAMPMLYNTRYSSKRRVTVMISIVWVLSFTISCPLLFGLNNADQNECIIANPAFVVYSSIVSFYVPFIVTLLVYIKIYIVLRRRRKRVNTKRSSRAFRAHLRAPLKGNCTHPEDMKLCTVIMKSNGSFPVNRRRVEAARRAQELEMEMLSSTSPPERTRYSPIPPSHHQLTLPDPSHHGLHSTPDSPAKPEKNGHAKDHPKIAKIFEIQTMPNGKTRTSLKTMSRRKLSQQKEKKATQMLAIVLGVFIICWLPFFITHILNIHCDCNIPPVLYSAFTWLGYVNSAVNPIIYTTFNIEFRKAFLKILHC

| Compound | Ki [1] [nM] | Ki ([2]; read-out: SERT Ki) [nM] | Ki ([2]; SERT Ki (nM)) [nM] |
| --- | --- | --- | --- |
| CCN(C)CCCC1CC1c1c[nH]c2ccc(C#N)cc12 (stereo not drawn) [Example 178, Trans-2-[5-cyanoindol-3-yl]-1-(3-(N-ethyl-N-methylamino)propyl)-cyclopropane] | 100 to 1000 | 10 to 100 |  |
| N#Cc1ccc2[nH]cc([C@@H]3C[C@H]3CNCCOc3ccccc3)c2c1 (relative stereo) [Example 44] | 1 to 10 | 1 to 10 |  |
| Fc1ccc2[nH]cc(C3CC3CNCC3CC3)c2c1 (stereo not drawn) [Example 69, trans-1-[N-Cyclopropylmethylaminomethyl]-2-[5-fluoroindol-3-yl]-cyclopropane] | 100 to 1000 | 10 to 100 |  |
| N#Cc1ccc2[nH]cc([C@@H]3C[C@H]3CNCCc3c[nH]cn3)c2c1 (relative stereo) [Example 23, trans-2-[5-Cyanoindol-3-yl]-1-[N-2-(4-imidazolyl)ethylaminomethyl]-cyclopropane] | 10 to 100 | 10 to 100 |  |
| N#Cc1ccc2[nH]cc(C3CC3CNCc3ccc(F)cc3)c2c1 (stereo not drawn) [Example 13, trans-2-[5-Cyanoindol-3-yl]-1-[N-(4-fluorobenzyl)aminomethyl]-cyclopropane] | 100 to 1000 | 1 to 10 |  |
| CNCC1CC1c1c[nH]c2ccc(C#N)cc12 (racemic) [Example 119, trans-2-[5-Cyanoindol-3-yl]-1-(N-methylaminomethyl)cyclopropane] | 100 to 1000 | 1 to 10 |  |
| COc1cccc(CCNC[C@@H]2C[C@H]2c2c[nH]c3ccc(C#N)cc23)c1 (relative stereo) [Example 42] | 10 to 100 | 1 to 10 |  |
| N#Cc1ccc2[nH]cc(C3CC3CNCc3ccccn3)c2c1 (stereo not drawn) [Example 14, trans-2-[5-Cyanoindol-3-yl]-1-[N-(2-pyridylmethyl)aminomethyl]-cyclopropane] | 100 to 1000 | 10 to 100 |  |
| CN(C)CCCC1CC1c1c[nH]c2ccc(C#N)cc12 (stereo not drawn) [Example 174, Trans-2-[5-cyanoindol-3-yl]-1-(3-(N,N-dimethylamino)propyl)cyclopropane] | 100 to 1000 | 10 to 100 |  |
| N#Cc1ccc2[nH]cc(C3CC3CCN3CCCC3)c2c1 (stereo not shown) [Example 145, 3-[2-(2-Pyrrolidin-1-yl-ethyl)-cyclopropyl]-1H-indole-5-carbonitrile] | 100 to 1000 | 10 to 100 |  |
| CCNCCCC1CC1c1c[nH]c2ccc(C#N)cc12 (stereo not drawn) [Example 176, Trans-2-[5-cyanoindol-3-yl]-1-(3-(N-ethylamino)propyl)cyclopropane] | 100 to 1000 | 10 to 100 |  |
| COc1ccc(CNCC2CC2c2c[nH]c3ccc(F)cc23)cc1 (stereo not drawn) [Example 52, trans-2-[5-Fluoroindol-3-yl]-1-[N-(4-methoxybenzyl)aminomethyl]-cyclopropane] | 100 to 1000 | 10 to 100 |  |
| COc1cccc(CNCC2CC2c2c[nH]c3ccc(F)cc23)c1 (stereo not drawn) [Example 51, trans-2-[5-Fluoroindol-3-yl]-1-[N-(3-methoxybenzyl)aminomethyl]-cyclopropane] | 100 to 1000 | 1 to 10 |  |
| CN(C)C[C@@H]1C[C@H]1c1c[nH]c2ccc(C#N)cc12 [Example 127a, (1R,2R)-trans-2-[5-Cyanoindol-3-yl]-1-(N,N-dimethylaminomethyl)cyclopropane maleate salt] | > 1000 | 10 to 100 |  |
| COc1ccc(CCNC[C@@H]2C[C@H]2c2c[nH]c3ccc(C#N)cc23)cc1 (relative stereo) [Example 43] | 10 to 100 | 1 to 10 |  |
| N#Cc1ccc2[nH]cc([C@@H]3C[C@H]3CN3CCc4ccccc4C3)c2c1 (relative stereo) [Example 37, trans-2-[5-Cyanoindol-3-yl]-1-[1,2,3,4-tetrahydro-1H-isoquinolin-2-yl-methyl]-cyclopropane] | 10 to 100 | 10 to 100 |  |
| N#Cc1ccc2[nH]cc(C3CC3CN3CCCC3)c2c1 (stereo not drawn) [Example 46, trans-2-[5-Cyanoindol-3-yl]-1-[pyrrolidin-1-yl-methyl]-cyclopropane] | 100 to 1000 | 1 to 10 |  |
| CC(C)CCNCC1CC1c1c[nH]c2ccc(C#N)cc12 (stereo not drawn) [Example 32, trans-2-[5-Cyanoindol-3-yl]-1-[N-3-methyl-butylaminomethyl]-cyclopropane] | 10 to 100 | 10 to 100 |  |
| Fc1ccc(CCNCC2CC2c2c[nH]c3ccc(F)cc23)cc1 (stereo not drawn) [Example 61, trans-2-[5-Fluoroindol-3-yl]-1-[N-(4-fluorophenyl)ethylaminomethyl]-cyclopropane] | 10 to 100 | 10 to 100 |  |
| CCN(CC)CCC1CC1c1c[nH]c2ccc(C#N)cc12 (stereo not shown) [Example 144, 3-[2-(2-Diethylamino-ethyl)-cyclopropyl]-1H-indole-5-carbonitrile] | 100 to 1000 | 10 to 100 |  |
| N#Cc1ccc2[nH]cc([C@@H]3C[C@H]3CNCCc3ccccc3F)c2c1 (relative stereo) [Example 17, trans-2-[5-Cyanoindol-3-yl]-1-[N-2-(2-fluorophenyl)ethylaminomethyl]-cyclopropane] | 10 to 100 | 1 to 10 |  |
| CN(CCc1ccccc1)C[C@@H]1C[C@H]1c1c[nH]c2ccc(C#N)cc12 (relative stereo) [Example 39, trans-2-[5-Cyanoindol-3-yl]-1-[N,N-methyl-phenylethylaminomethyl]-cyclopropane] | 10 to 100 | 1 to 10 |  |
| Fc1cccc(CCNCC2CC2c2c[nH]c3ccc(F)cc23)c1 (stereo not drawn) [Example 60, trans-2-[5-Fluoroindol-3-yl]-1-[N-(3-fluorophenyl)ethylaminomethyl]-cyclopropane] | 100 to 1000 | 10 to 100 |  |
| CCNCC1CC1c1c[nH]c2ccc(F)cc12 (stereo not shown) [Example 136] | > 1000 |  | 10 to 100 |
| CN(C)CC1CC1c1c[nH]c2ccc(F)cc12 (single isomer, unassigned) [Example 130a, Cis-2-[5-Fluoroindol-3-yl]-1-(N,N-dimethylaminomethyl)cyclopropane] | > 1000 |  | 100 to 1000 |
| CN(C)CC1CC1c1c[nH]c2ccc(C#N)cc12 (single isomer, unassigned) [Example 129a, Cis-2-[5-Cyanoindol-3-yl]-1-(N,N-dimethylaminomethyl)cyclopropane] | > 1000 |  | 10 to 100 |

Second part, led by results:

| Ki [1] [nM] | Ki ([2]; read-out: SERT Ki) [nM] | Compound | Ki ([2]; SERT Ki (nM)) [nM] |
| --- | --- | --- | --- |
| 100 to 1000 | 10 to 100 | CCOC(=O)NCCCN(CC)C[C@@H]1C[C@H]1c1c[nH]c2ccc(F)cc12 (relative stereo) [Example 113] |  |
| > 1000 | 10 to 100 | CCN(CCCNC(=O)OC(C)C)C[C@@H]1C[C@H]1c1c[nH]c2ccc(C#N)cc12 (relative stereo) [Example 100, trans-2-[5-Cyanoindol-3-yl]-1-[N,N-ethyl-2-amino(isopropylcarbamoyl)propylaniinomethyl]-cyclopropane] |  |
| > 1000 | 1 to 10 | COC(=O)NCCCN(C)C[C@@H]1C[C@H]1c1c[nH]c2ccc(C#N)cc12 (relative stereo) [Example 89, trans-2-[5-Cyanoindol-3-yl]-1-[N,N-methyl-2-amino(methylcarbamoyl)propylaminomethyl]-cyclopropane] |  |
| 10 to 100 | 10 to 100 | Fc1ccc2[nH]cc(C3CC3CNCCCc3cccnc3)c2c1 (stereo not drawn) [Example 63, trans-2-[5-Fluoroindol-3-yl]-1-[N-3-(3-pyridyl)propylaminomethyl]-cyclopropane] |  |
| 10 to 100 | 10 to 100 | Fc1ccc2[nH]cc(C3CC3CNCCc3cccs3)c2c1 (stereo not drawn) [Example 67, trans-2-[5-Fluoroindol-3-yl]-1-[N-2-(2-thiopheneyl)ethylaminomethyl]-cyclopropane] |  |
| 100 to 1000 | 1 to 10 | CCN(CCCNC(=O)OC)C[C@@H]1C[C@H]1c1c[nH]c2ccc(C#N)cc12 (relative stereo) [Example 97, trans-2-[5-Cyanoindol-3-yl]-1-[N,N-ethyl-2-amino(methylcarbamoyl)propylaminomethyl]-cyclopropane] |  |
| 100 to 1000 | 10 to 100 | CN(CCCC1CC1c1c[nH]c2ccc(C#N)cc12)Cc1ccccc1 (stereo not drawn) [Example 180, Trans-2-[5-cyanoindol-3-yl]-1-(3-(N-benzyl-N-methylamino)propyl)cyclopropane] |  |
| 100 to 1000 | 1 to 10 | CC(C)OC(=O)NCCN(C)C[C@@H]1C[C@H]1c1c[nH]c2ccc(F)cc12 (relative stereo) [Example 103] |  |
| 100 to 1000 | 10 to 100 | CCOC(=O)NCCN(C)C[C@@H]1C[C@H]1c1c[nH]c2ccc(C#N)cc12 (relative stereo) [Example 87, trans-2-[5-Cyanoindol-3-yl]-1-[N,N-methyl-2-amino(ethylcarbamoyl)ethylaminomethyl]-cyclopropane] |  |
| 100 to 1000 | 1 to 10 | CN(CCc1ccccc1)C[C@@H]1C[C@H]1c1c[nH]c2ccc(F)cc12 (relative stereo) [Example 78, trans-2-[5-Fluoroindol-3-yl]-1-[N,N-methyl-phenylethylaminomethyl]-cyclopropane] |  |
| 100 to 1000 | 1 to 10 | CN(Cc1ccccc1)CC1CC1c1c[nH]c2ccc(F)cc12 (stereo not shown) [Example 131] |  |
| > 1000 | 1 to 10 | CCCOC(=O)NCCN(C)C[C@@H]1C[C@H]1c1c[nH]c2ccc(C#N)cc12 (relative stereo) [Example 88, trans-2-[5-Cyanoindol-3-yl]-1-[N,N-methyl-2-amino(propylcarbamoyl)ethylaminomethyl]-cyclopropane] |  |
